Experimental data taken from patent publication US12065468B2, “Heme-binding small peptide” (priority 2021, dated 2024).
Entries after “also recorded” stand apart in the source; their conditions may differ.

Columns and labels:
[1] = Peroxidase assay of heme on TMB; type: biochemical; settings: 5 μM NCR247 + 5 μM heme
Protocol: Peroxidase assay: Pierce TMB Substrate Kit was used to measure the peroxidase activity of the heme and equimolar NCR247 was added to heme according to the manufacturer's instructions. In short, 100 μL of TMB substrate solution (1:1 of TMB substrate and Peroxide solution) was added to 96 well black, polystyrene flat bottomed, non-treated, sterile plates. 5 μM heme or 5 μM NCR247+5 μM heme was added to the wells and the progression of the reaction was measured in a Tecan Spark™ plate reader. UV-Vis absorption values at 370 nm and 652 nm are noted every minute over a time period of 16 mins.

S. meliloti = test: Cell cycle progression by flow cytometry on synchronized cultures; type: cell-based, Sinorhizobium meliloti; settings: synchronized culture, 4 uM; listed as L-NCR247
Text: FIG. 14. […] Cell cycle progression analysis using flow cytometry on synchronized cultures of Wild type S. meliloti and bacA mutant of S. meliloti treated with L or D-NCR247 when compared to untreated cells. Dark grey represents percentage of cells with 1 copy of genome and light grey represents percentage of cells with 2 copies of genomes. […] Data are presented as average of three biological replicates.
Since NCR247 treatment leads to gene expression change in several genes of the CtrA regulon, we investigated the CtrA regulon and the cell division inhibition role of NCR247. […] In addition, this phenotype is retained in a peptide transporter bacA mutant indicating cell division inhibition happens due to protein-peptide interaction outside the cytoplasm.

Toxoplasma gondii = test: T. gondii plaque assay on human foreskin fibroblasts; type: cell-based; settings: 6 hr. pre-treatment of parasites
Protocol: Parasite and host cell culture: T. gondii parasites (strain RH, ATCC 50838) were grown in human foreskin fibroblasts (HFFs) maintained in DMEM (GIBCO) supplemented with 3% inactivated fetal calf serum (IFS) and 10 μg/mL gentamicin (Thermo Fisher Scientific), referred to as D3. Where noted, DMEM supplemented with 10% IFS and 10 μg/mL gentamicin was used, referred to as D10.
Plaque Assays: Freshly lysed parasites were filtered through 5 μm filters and spun down at 1000×g and 18° C. for 10 min. Parasites were resuspended to 6E6 parasites/mL in Fluorobrite™ media supplemented with 3% IFS. Parasites were incubated with either peptide or vehicle for 6 hours at 37° C. and 5% CO2. Parasites were then spun down, washed once in 2 mL of Fluorobrite™ supplemented with 3% IFS, and resuspended in 1 mL of media. 2000 parasites were inoculated into each well of 6-well plates of HFFs maintained in D10 and allowed to grow undisturbed for 9 days. Plates were washed with PBS and fixed for 10 min at room temperature with 100% ethanol. Monolayers were visualized by staining for 5 min at room temperature with crystal violet solution, followed by two washes with PBS, one wash with water, and drying overnight.

ctrA = test: qRT-PCR of ctrA; type: cell-based, Sinorhizobium meliloti; settings: 2 μM, 30 mins; listed as L-NCR247
Protocol: FIG. 16. […] The data are expressed as starting quantities (SQ) of respective mRNAs normalized to the control gene SMc00128 and are presented as average of three technical replicates
RNA isolation and qRT-PCR analysis: Cells were grown in LB until they reached an O.D.600 nm of 0.2. Then cells were spun down and suspended in minimal media with or without appropriate FeSO4 concentrations for 1 hour. NCR247 was then added and 5 ml of appropriate cultures were spun down at given time intervals. Total RNA was extracted using Trizol™ (Thermo Fisher Scientific) method. Qiagen RNeasy™ kit was used to purify the RNA. On-column DNA removal was carried out using DNase I from NEB. 500 ng of each RNA sample was used to make cDNA using the iScript™ cDNA synthesis kit (Biorad). qRT-PCRs were performed as described previously^86. The standard curve method was used for relative quantification. In short, a standard curve was generated for each gene of interest (including SMc00128) by setting up qpCR reactions to amplify increasing amounts of S. meliloti Rm 1021 genomic DNA. […] This curve was then used for extrapolating relative expression level of each gene of interest in a particular sample to obtain the starting quantities (SQ). […] These normalized values are then expressed as an average of triplicates, with standard deviation (s.d.) represented by the error bars. […]

[2] = tested on: Human red blood cells (hRBC); test: Haemolysis assay; type: cell-based; settings: 1.5 h at 37° C., 4% hRBC; listed as L-NCR247
Protocol: Haemolysis assay: Standard methods of hemolysis assay as previously published was followed^96. Human red blood cells (hRBC) were washed three times with phosphate-buffered saline (PBS: 10 mM Na2HPO4, 1.76 mM K2HPO4, pH 7.4, containing […], and 2.7 mM KCl). Two-fold serial dilutions of the peptide solutions were then added to 50 μl aliquots of hRBC in PBS to adjust a final volume to 100 μl and hRBC concentration to 4% (v/v) in each well of a 96-well plate. The suspension was incubated for 1.5 h at 37° C. under stirring at 1000 rpm. The plates were centrifuged at 2000 g for 5 min. Supernatant aliquots of 50 μl were transferred into flat-bottomed 96-well microplates, and the release of hemoglobin was monitored by measuring the absorbance at 405 nm in a microplate reader. hRBC in PBS (0% lysis control) and 0.1% Triton X-100 (100% lysis control) were used as negative and positive controls, respectively. Hemolytic activity was expressed as a percentage of hemolysis calculated according to the following equation: Hemolysis (%)=(OD405nm sample—OD405nm 0% lysis control)/(OD405nm 100% lysis control−OD405nm 0% lysis control)*100.

[3] = UV-Vis spectroscopy / colour change on heme addition; type: binding
Protocol: Heme preparation: Hemin solutions were always prepared in 0.1 M NaOH and used within 30 min of preparation. 1:1000 and 1:500 dilution of the stock solution was made and stock concentration was measured by pyridine hemochrome assay as described previously^85 by measuring the absorption at 557 nm using the extinction coefficient of pyridine hemochromogen (34.7 mM^−1 cm^−1).
UV-VIS spectroscopy: All absorption spectra were collected in a Tecan Spark™ 10 M microplate reader using black polystyrene 96-well plates. Absorbance from 300 nm to 700 nm was recorded with a 5 nm interval after an initial shaking at 100 rpm for 15 secs. Heme binding to synthesized peptide: Water (pH 7.4) was used in all reactions and was first added to the wells. Peptides solubilized in water were added and then heme solubilized in 0.1 M NaOH was added, mixed thoroughly and measurements were taken immediately. Peptide and heme volume were kept to a maximum of 5 ul in volume. For all the absorption curves (except Extended FIG. 3a) […] was used. The same was also repeated with 0.1 M Tris buffer (pH 7.4) as a base buffer instead of water.

RNGCIVDPRCPYQQCRRPLYCRRR [NCR247]
peroxidase activity of heme [1]: intrinsic peroxidase activity of heme is quenched
cell division inhibition (S. meliloti): leads to cell division inhibition; also recorded: more percentage of cells having 2 copies of genome
capacity of T. gondii to form plaques (Toxoplasma gondii): massive reduction in the capacity of the parasite to form plaques
expression of ctrA (ctrA): lowers the expression of CtrA; also recorded: decrease in expression of ctrA
haemolytic activity [2]: did not detect haemolytic activities; also recorded: negligible hemolysis
heme binding (absorption peaks 366 nm, ~450 nm; colour change) ([3]; heme added to peptide, ferric heme): bound within seconds; also recorded: binds heme
binding of ferrous heme ([3]; sodium dithionite-reduced Fe(II) heme): binds sodium dithionite-reduced Fe(II) ferrous heme
